The series in a line: gradient 5% acetonitrile 3 min, to 50% in 2 min, to 85% in 15 min, held 3 min, 100 µL/min. As to conditions: column: Zorbax Extend-C18 2.1 x 50 mm; eluents: water / acetonitrile, 0.1% formic acid. A digest of the protocol:
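Using water and acetonitrile that each contained 0.1% formic acid, mixtures of ~100 pure standards were separated at 100 μL/min on a Zorbax Extend-C18 column (2.1 × 50 mm, 1.8 μm). The HPLC fed a quadrupole time-of-flight mass spectrometer working in positive and negative ionization mode, with dead and dwell volumes of 40 μL and 900 μL. Data were acquired over 3 months. Retention time was read from computationally picked adduct peaks after manual inspection of each.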
`Cc1cc(NCCOCCO)n2nc(-c3ccc(Cl)cc3)c(C)c2n1` gave an RP-LC retention time of 644 s. The result for `CCC(C)NC(=O)N1CC=C(c2cn(C(C)C)c3ncccc23)CC1` (stereo not drawn) reads 821 s; that for `CCOc1cccc(-c2noc(Cn3ccn(-c4c(C)cccc4C)c(=O)c3=O)n2)c1`, 951 s; that for `O=C(NCc1nc2ccccc2n1CCCCOc1ccccc1Cl)c1ccco1`, 660 s.

Regarding `CSc1ccc(-c2noc(CN3C(=O)C(C)Oc4ccccc43)n2)cc1` (stereo not drawn), the RP-LC retention time amounted to 1140 s. In turn, `O=C(NCc1ccccn1)C1CCN(c2cc(N3CCSCC3)ncn2)CC1` came in with an RP-LC retention time of 559 s. The result for `COc1ccc(NC(=O)N(C)CCc2noc(COc3ccccc3F)n2)cc1` reads 845 s; that for `Cc1ccc(NC(=O)Cn2nc(N3CCSCC3)c3ccccc3c2=O)c(C)c1`, 940 s.

As for `Cc1nc([C@@H]2CN(C(=O)c3cccs3)C[C@H]2C(N)=O)n[nH]1`, the RP-LC retention time was found to be 562 s.

The molecule `COc1ccc(C)cc1NS(=O)(=O)c1cc(-c2cc(C(F)(F)F)on2)sc1C` showed an RP-LC retention time of 1210 s. As for `O=C(c1cccc(Cn2cncn2)c1)N1CCC2(CC1)OCCO2`, the figure is 607 s. As for `CC(C)(C)NC(=O)N1CCC(OC2CCN(Cc3ccccc3)CC2)CC1`, the figure is 625 s; as for `Cc1ccc(C)c(N2CCN(c3ccnc(SCC(=O)NCc4ccc5c(c4)OCO5)n3)CC2)c1`, 859 s. `Cc1ccc(N2C(=O)CN(Cc3ccco3)[C@H]3CS(=O)(=O)C[C@H]32)cc1` returned an RP-LC retention time of 737 s. As to `O=C(CN1C(=O)C2CCCCN2c2ccc(S(=O)(=O)N3CCCC3)cc21)N1CCCCCC1` (stereo not drawn), the RP-LC retention time is 918 s. On to `O=C(C1CC(=O)N(c2ccc(F)cc2)C1)N1CCN(CCn2cccn2)CC1` (stereo not drawn), for which the RP-LC retention time turned out to be 556 s. In turn, `Cc1ccc2nc(-c3cccc(F)c3)cc(C(N)=O)c2c1` showed an RP-LC retention time of 880 s. Molecule `Cc1ccn2c(NC(=O)c3ccc(Cl)cc3)c(-c3ccc(F)cc3)nc2c1` displayed an RP-LC retention time of 693 s. In turn, `CCOc1nc2ccccc2nc1N1CCCC(C(=O)NCc2ccccc2)C1` (stereo not drawn) registered an RP-LC retention time of 1090 s.

For the molecule `COc1ccc(NC(=O)Cn2nc(N3CCSCC3)c3ccccc3c2=O)cc1Cl`, the RP-LC retention time came out at 949 s.

Regarding `Cc1ccc2c(c1)OCC(=O)N2Cc1nc(-c2ccc(Cl)c(F)c2)no1`, the RP-LC retention time is 1190 s. `CCCN1C(=O)COc2ccc(-c3csc(NC(=O)C4CC4)n3)cc21` displayed an RP-LC retention time of 879 s. As for `Clc1ccccc1N1CCN(c2cc(-c3nc(-c4ccccc4)no3)c3ccccc3n2)CC1`, the figure is 1130 s; as for `Cc1ccc(-n2c(N3CCCC(C(=O)Nc4ccccc4)C3)nc3ccsc3c2=O)cc1` (stereo not drawn), 966 s.

The molecule `O=C(O)C1(c2cc(-c3ccccc3)on2)CC1` had an RP-LC retention time of 736 s. As for `CCCCN1CCN(S(=O)(=O)c2cc(-c3nnc(CC)o3)co2)CC1`, the RP-LC retention time turned out to be 608 s.

`Cc1ccc(NC(=O)Cn2c(N3CCCC3)nc(C)cc2=O)c(C)c1` came in with an RP-LC retention time of 669 s. The result for `CN(C)C(CNC(=O)c1cc(=O)c2ccccc2o1)c1ccccc1Cl` (stereo not drawn) reads 650 s; that for `CC(NC(=O)c1ccc(OC(F)(F)F)cc1)C(=O)N1CCN(c2ccccn2)CC1` (stereo not drawn), 643 s. In turn, `O=C(NCc1ccccc1)c1ccc2ncnc(N3CCCC3)c2c1` had an RP-LC retention time of 613 s. On to `COc1ccc(NC(=O)Cn2c(N3CCOCC3)nc(C)cc2=O)cc1Cl`, for which the RP-LC retention time amounted to 1120 s.

`CCc1cc(-c2csc(S(=O)(=O)N3CCN(C4CCCCC4)CC3)c2)on1` returned an RP-LC retention time of 723 s. Turning to `Cc1cccc(S(=O)(=O)N2CCCN(c3ccc(=O)n(-c4ccc(F)cc4)n3)CC2)c1`, the RP-LC retention time was 865 s.

The values are drawn from the METLIN SMRT retention time set (Domingo-Almenara et al. 2019).
